How the values were obtained:
[1] = tested on: IGROV-1 human ovarian adenocarcinoma cell line; assay: cells; conditions: Homo sapiens, IGROV-1, 72 h
SW1990 tumors = assay: Human pancreatic tumor xenografts (SW1990) in athymic nude mice, tumor volume % T/C; format: in vivo
Method: Female athymic nude mice (Harlan Laboratories Models, S.L. (Barcelona, Spain) were utilized for all experiments. Animals were housed in individually ventilated cages, up to ten per cage in a 12-hour light-dark cycle at 21-23° C. and 40-60% humidity. The mice were allowed free access to irradiated standard rodent diet and sterilized water. Animals were acclimated for at least 5 days prior to tumor implantation with a tumor cell suspension.
Each animal was subcutaneously implanted on the right flank, using 26G needle and a 1 cc syringe, with 5×10^6 SW1990 cells, from in vitro passage 12, in 0.05 mL suspension of 50% Matrigel and 50% serum free medium, without antibiotics.
PM01183 was provided in the form of vials of lyophilized PM01183 cake which was reconstituted with water for infusion to a concentration of 0.2 mg/mL. The PM01183 stock solution was further diluted in 5% glucose solution for injection to the dosing formulation concentrations.
Dose level groups were administered either as single agents or in combination.
Comparison of the median tumor volume in the treatment groups (T) to the median tumor volume in the control group (T/C×100%) was used for evaluation of the antitumor efficacy.

H460 tumors = assay: Human lung tumor xenografts (H460) in athymic nude mice, tumor volume % T/C
[2] = PM01183 0.045 mg/kg iv days 0,7,14
[3] = PM01183 0.09 mg/kg iv days 0,7,14
[4] = PM01183 0.135 mg/kg iv days 0,7,14
[5] = PM01183 0.18 mg/kg iv days 0,7,14

SMILES: COc1ccc2[nH]c3c(c2c1)CCN[C@]31CS[C@@H]2c3c(OC(C)=O)c(C)c4c(c3[C@H](COC1=O)N1[C@@H]2[C@H]2c3c(cc(C)c(OC)c3O)C[C@@H]([C@@H]1O)N2C)OCO4 [PM01183]
- IC50 [1]: 3.2 nM
- % T/C on day 0 (SW1990 tumors; [2]): 100.2%
- % T/C on day 3 (SW1990 tumors; [2]): 83.6%
- % T/C on day 6 (SW1990 tumors; [2]): 82.8%
- % T/C on day 8 (SW1990 tumors; [2]): 93.3%
- % T/C on day 10 (SW1990 tumors; [2]): 82.9%
- % T/C on day 13 (SW1990 tumors; [2]): 88.1%
- % T/C on day 15 (SW1990 tumors; [2]): 92.6%
- % T/C on day 17 (SW1990 tumors; [2]): 86.5%
- % T/C on day 20 (SW1990 tumors; [2]): 85.1%
- % T/C on day 22 (SW1990 tumors; [2]): 84.5%
- % T/C on day 24 (SW1990 tumors; [2]): 85.8%
- % T/C on day 28 (SW1990 tumors; [2]): 85.4%
- % T/C on day 0 (SW1990 tumors; [3]): 101.1%
- % T/C on day 3 (SW1990 tumors; [3]): 81.5%
- % T/C on day 6 (SW1990 tumors; [3]): 72.8%
- % T/C on day 8 (SW1990 tumors; [3]): 68.7%
- % T/C on day 10 (SW1990 tumors; [3]): 68.4%
- % T/C on day 13 (SW1990 tumors; [3]): 74.4%
- % T/C on day 15 (SW1990 tumors; [3]): 74.7%
- % T/C on day 17 (SW1990 tumors; [3]): 80.7%
- % T/C on day 20 (SW1990 tumors; [3]): 71.9%
- % T/C on day 22 (SW1990 tumors; [3]): 75.4%
- % T/C on day 24 (SW1990 tumors; [3]): 77.3%
- % T/C on day 28 (SW1990 tumors; [3]): 63.9%
- % T/C on day 0 (SW1990 tumors; [4]): 99.6%
- % T/C on day 3 (SW1990 tumors; [4]): 81.3%
- % T/C on day 6 (SW1990 tumors; [4]): 71.0%
- % T/C on day 8 (SW1990 tumors; [4]): 73.1%
- % T/C on day 10 (SW1990 tumors; [4]): 65.6%
- % T/C on day 13 (SW1990 tumors; [4]): 63.1%
- % T/C on day 15 (SW1990 tumors; [4]): 56.3%
- % T/C on day 17 (SW1990 tumors; [4]): 56.7%
- % T/C on day 20 (SW1990 tumors; [4]): 56.9%
- % T/C on day 22 (SW1990 tumors; [4]): 56.5%
- % T/C on day 24 (SW1990 tumors; [4]): 53.0%
- % T/C on day 28 (SW1990 tumors; [4]): 51.7%
- % T/C on day 0 (SW1990 tumors; [5]): 100.0%
- % T/C on day 3 (SW1990 tumors; [5]): 74.3%
- % T/C on day 6 (SW1990 tumors; [5]): 61.3%
- % T/C on day 8 (SW1990 tumors; [5]): 59.4%
- % T/C on day 10 (SW1990 tumors; [5]): 56.7%
- % T/C on day 13 (SW1990 tumors; [5]): 56.1%
- % T/C on day 15 (SW1990 tumors; [5]): 53.2%
- % T/C on day 17 (SW1990 tumors; [5]): 47.8%
- % T/C on day 20 (SW1990 tumors; [5]): 44.2%
- % T/C on day 22 (SW1990 tumors; [5]): 45.3%
- % T/C on day 24 (SW1990 tumors; [5]): 44.8%
- % T/C on day 28 (SW1990 tumors; [5]): 38.9%
- % T/C on day 0 (H460 tumors; PM01183 0.045 mg/kg): 108.3%
- % T/C on day 2 (H460 tumors; PM01183 0.045 mg/kg): 78.7%
- % T/C on day 5 (H460 tumors; PM01183 0.045 mg/kg): 61.2%
- % T/C on day 7 (H460 tumors; PM01183 0.045 mg/kg): 67.2%
- % T/C on day 9 (H460 tumors; PM01183 0.045 mg/kg): 78.8%
- % T/C on day 12 (H460 tumors; PM01183 0.045 mg/kg): 87.9%
- % T/C on day 0 (H460 tumors; PM01183 0.09 mg/kg): 116.9%
- % T/C on day 2 (H460 tumors; PM01183 0.09 mg/kg): 83.1%
- % T/C on day 5 (H460 tumors; PM01183 0.09 mg/kg): 83.9%
- % T/C on day 7 (H460 tumors; PM01183 0.09 mg/kg): 76.9%
- % T/C on day 9 (H460 tumors; PM01183 0.09 mg/kg): 80.6%
- % T/C on day 12 (H460 tumors; PM01183 0.09 mg/kg): 84.9%
- % T/C on day 0 (H460 tumors; PM01183 0.135 mg/kg): 117.6%
- % T/C on day 2 (H460 tumors; PM01183 0.135 mg/kg): 77.4%
- % T/C on day 5 (H460 tumors; PM01183 0.135 mg/kg): 67.5%
- % T/C on day 7 (H460 tumors; PM01183 0.135 mg/kg): 71.7%
- % T/C on day 9 (H460 tumors; PM01183 0.135 mg/kg): 66.7%
- % T/C on day 12 (H460 tumors; PM01183 0.135 mg/kg): 52.9%
- % T/C on day 0 (H460 tumors; PM01183 0.18 mg/kg): 114.4%
- % T/C on day 2 (H460 tumors; PM01183 0.18 mg/kg): 79.6%
- % T/C on day 5 (H460 tumors; PM01183 0.18 mg/kg): 74.7%
- % T/C on day 7 (H460 tumors; PM01183 0.18 mg/kg): 75.0%
- % T/C on day 9 (H460 tumors; PM01183 0.18 mg/kg): 69.1%
- % T/C on day 12 (H460 tumors; PM01183 0.18 mg/kg): 64.9%
